# Target: enzyme 5α-reductase
# Test: enzymatic in vitro method described in WO/9413691 (5α-reductase inhibition)
# Type: biochemical
# Conditions: for IC50: concentration inhibiting by 50% the enzymatic activity, Finasteride as control product; for inhibiting activity on the enzyme 5α-reductase: verbal assessment, compared with Finasteride
# Text: The three monohydroxylated products obtained by biotransformation of the azasteroid moiety using Penicillium sp. have biological activity on the enzyme 5α-reductase. For this purpose, the enzymatic in vitro method described in WO/9413691, published on June 23, 1994 has been used.
IC50,inhibiting activity on the enzyme 5α-reductase,Compound
37 nM,–,"CC(C)(C)NC(=O)[C@H]1CC[C@H]2[C@@H]3CC[C@H]4NC(=O)C=C[C@]4(C)[C@H]3CC[C@]12C [Finasteride, reference compound]"
195 nM,poorly active,"CC(C)(C)NC(=O)[C@H]1CC[C@H]2[C@@H]3C[C@H](O)C4NC(=O)CC[C@]4(C)[C@H]3CC[C@]12C (stereo partly drawn) [Product 1, 17β-t-butylcarbamoyl-6a-hydroxy-4-azaandrostan-3-one]"
35 nM,strong inhibiting activity,"CC(C)(C)NC(=O)[C@H]1C[C@H](O)[C@H]2[C@@H]3CCC4NC(=O)CC[C@]4(C)[C@H]3CC[C@@]21C (stereo partly drawn) [Product 2, 17β-t-butylcarbamoyl-15a-hydroxy-4-azaandrostan-3-one]"
35 nM,strong inhibiting activity,"CC(C)(C)NC(=O)[C@H]1C[C@@H](O)[C@H]2[C@@H]3CCC4NC(=O)CC[C@]4(C)[C@H]3CC[C@@]21C (stereo partly drawn) [Product 3, 17β-t-butylcarbamoyl-15β-hydroxy-4-azaandrostan-3-one]"
